Experimental data from patent publication US5980913A, “Peptides having immunomodulatory activity” (Biochem Pharma, Inc., priority 1994, dated 1999).
Where a SMILES comes first, the peptide text is derived from it. [ ]: non-standard residue; d: D form.

Test system: blood cell subsets (cell surface antigens)
Test: In vivo/ex vivo immunophenotyping in the blood, mice treated 4 consecutive days, blood taken on day 5
Design: species or system C57BL/6 mice
Method: C57BL.backslash.6 mice are treated with 0, 50, 100, 200, and 300 mg/kg of drug (in saline) for 4 consecutive days. Blood is taken by cardiac puncture on day 5, and the lymphocytes are isolated from spleen in the following manner:
1. Immunophenotyping (blood and spleen)
Cell immunophenotyping is performed on blood and spleen. The following cell surface antigens are analyzed:
CD4 (T helper/inducer, binds class II-restricted T cells);
CD8 (cytotoxic T cells, CTL adhesion);
MAC-1 (monocyte/macrophage);
NK (natural killer cells);
CD45 (all leukocytes, protein tyrosine phosphatase).

NCCCC[C@@H](N)C(=O)N[C@@H](CC(N)=O)C(=O)N1CCC[C@H]1C(=O)N[C@@H](Cc1ccc(O)cc1)C(=O)O [PEPTIDE #5, H-(D-Lys)-Asn-Pro-Tyr-OH] (H-[dK]NPY-OH)
CD4+ CD8+ cell subset, relative percentage, MEAN (100 mg/kg, second assay): 0.33 | CD4+ CD8- cell subset, relative percentage, MEAN (100 mg/kg, second assay): 25.00 | CD4+ CD11b+ cell subset, relative percentage, MEAN (100 mg/kg, second assay): 0.50 | CD4+ CD11b- cell subset, relative percentage, MEAN (100 mg/kg, second assay): 21.58 | CD4- CD8+ cell subset, relative percentage, MEAN (100 mg/kg, second assay): 6.80 | CD4- CD8- cell subset, relative percentage, MEAN (100 mg/kg, second assay): 67.83 | CD4- CD11b+ cell subset, relative percentage, MEAN (100 mg/kg, second assay): 10.28 | CD4- CD11b- cell subset, relative percentage, MEAN (100 mg/kg, second assay): 67.65 | CD45+ CD4+ cell subset, relative percentage, MEAN (100 mg/kg, second assay): 22.70 | CD45+ CD4- cell subset, relative percentage, MEAN (100 mg/kg, second assay): 68.45 | CD45+ CD8+ cell subset, relative percentage, MEAN (100 mg/kg, second assay): 7.05 | CD45+ CD8- cell subset, relative percentage, MEAN (100 mg/kg, second assay): 85.00 | CD45- CD4+ cell subset, relative percentage, MEAN (100 mg/kg, second assay): 2.23 | CD45- CD4- cell subset, relative percentage, MEAN (100 mg/kg, second assay): 6.63 | CD45- CD8+ cell subset, relative percentage, MEAN (100 mg/kg, second assay): 0.10 | CD45- CD8- cell subset, relative percentage, MEAN (100 mg/kg, second assay): 7.83 | Ly5(B) cell subset, relative percentage, MEAN (100 mg/kg, second assay): 56.10 | NK+ CD3+ cell subset, relative percentage, MEAN (100 mg/kg, second assay): 4.68 | NK+ CD3- cell subset, relative percentage, MEAN (100 mg/kg, second assay): 7.58 | NK- CD3+ cell subset, relative percentage, MEAN (100 mg/kg, second assay): 36.30 | NK- CD3- cell subset, relative percentage, MEAN (100 mg/kg, second assay): 51.43 | TCR(T) cell subset, relative percentage, MEAN (100 mg/kg, second assay): 37.50 | CD4+ CD8+ cell subset, relative percentage, MEAN (200 mg/kg, first assay): 1.90 | CD4+ CD8- cell subset, relative percentage, MEAN (200 mg/kg, first assay): 19.00 | CD4+ CD11b+ cell subset, relative percentage, MEAN (200 mg/kg, first assay): 0.85 | CD4+ CD11b- cell subset, relative percentage, MEAN (200 mg/kg, first assay): 18.98 | CD4- CD8+ cell subset, relative percentage, MEAN (200 mg/kg, first assay): 4.68 | CD4- CD8- cell subset, relative percentage, MEAN (200 mg/kg, first assay): 74.40 | CD4- CD11b+ cell subset, relative percentage, MEAN (200 mg/kg, first assay): 7.78 | CD4- CD11b- cell subset, relative percentage, MEAN (200 mg/kg, first assay): 72.45 | CD45+ CD4+ cell subset, relative percentage, MEAN (200 mg/kg, first assay): 17.45 | CD45+ CD4- cell subset, relative percentage, MEAN (200 mg/kg, first assay): 57.70 | CD45+ CD8+ cell subset, relative percentage, MEAN (200 mg/kg, first assay): 6.15 | CD45+ CD8- cell subset, relative percentage, MEAN (200 mg/kg, first assay): 64.30 | CD45- CD4+ cell subset, relative percentage, MEAN (200 mg/kg, first assay): 3.48 | CD45- CD4- cell subset, relative percentage, MEAN (200 mg/kg, first assay): 21.35 | CD45- CD8- cell subset, relative percentage, MEAN (200 mg/kg, first assay): 29.08 | CD45- CDE8+ cell subset, relative percentage, MEAN (200 mg/kg, first assay): 0.48 | Ly5(B) cell subset, relative percentage, MEAN (200 mg/kg, first assay): 65.60 | NK+ CD3+ cell subset, relative percentage, MEAN (200 mg/kg, first assay): 1.93 | NK+ CD3- cell subset, relative percentage, MEAN (200 mg/kg, first assay): 5.73 | NK- CD3+ cell subset, relative percentage, MEAN (200 mg/kg, first assay): 33.03 | NK- CD3- cell subset, relative percentage, MEAN (200 mg/kg, first assay): 59.33 | TCR(T) cell subset, relative percentage, MEAN (200 mg/kg, first assay): 32.18 | CD4+ CD8+ cell subset, relative percentage, MEAN (200 mg/kg, second assay): 0.30 | CD4+ CD8- cell subset, relative percentage, MEAN (200 mg/kg, second assay): 23.13 | CD4+ CD11b+ cell subset, relative percentage, MEAN (200 mg/kg, second assay): 0.13 | CD4+ CD11b- cell subset, relative percentage, MEAN (200 mg/kg, second assay): 15.40 | CD4- CD8+ cell subset, relative percentage, MEAN (200 mg/kg, second assay): 7.58 | CD4- CD8- cell subset, relative percentage, MEAN (200 mg/kg, second assay): 69.03 | CD4- CD11b+ cell subset, relative percentage, MEAN (200 mg/kg, second assay): 5.20 | CD4- CD11b- cell subset, relative percentage, MEAN (200 mg/kg, second assay): 79.30 | CD45+ CD4+ cell subset, relative percentage, MEAN (200 mg/kg, second assay): 20.85 | CD45+ CD4- cell subset, relative percentage, MEAN (200 mg/kg, second assay): 71.95 | CD45+ CD8+ cell subset, relative percentage, MEAN (200 mg/kg, second assay): 7.83 | CD45+ CD8- cell subset, relative percentage, MEAN (200 mg/kg, second assay): 85.60 | CD45- CD4+ cell subset, relative percentage, MEAN (200 mg/kg, second assay): 2.23 | CD45- CD4- cell subset, relative percentage, MEAN (200 mg/kg, second assay): 5.00 | CD45- CD8+ cell subset, relative percentage, MEAN (200 mg/kg, second assay): 0.05 | CD45- CD8- cell subset, relative percentage, MEAN (200 mg/kg, second assay): 6.53 | Ly5(B) cell subset, relative percentage, MEAN (200 mg/kg, second assay): 65.63 | NK+ CD3+ cell subset, relative percentage, MEAN (200 mg/kg, second assay): 2.90 | NK+ CD3- cell subset, relative percentage, MEAN (200 mg/kg, second assay): 6.83 | NK- CD3+ cell subset, relative percentage, MEAN (200 mg/kg, second assay): 32.30 | NK- CD3- cell subset, relative percentage, MEAN (200 mg/kg, second assay): 58.03 | TCR(T) cell subset, relative percentage, MEAN (200 mg/kg, second assay): 35.80 | CD4- CD8-, figure printed with the significant increase of B cells (all tested doses): 73% | Ly5, figure printed with the significant increase of B cells (all tested doses): 80% | change of B cells (in words) (all tested doses): significant increase
